Test results reported in patent US20230373962A1, “SUPRAMOLECULAR MOLECULES FOR THE TREATMENT OF CANCER” (The University of Birmingham, priority 2020, published 2023).

Assay: Solubility
Assay type: physicochemical
Conditions: CB[10] alone

## O=C1N2CN3C(=O)N4CN5C(=O)N6CN7C(=O)N8CN9C(=O)N%10CN%11C(=O)N%12CN%13C(=O)N%14CN%15C(=O)N%16CN%17C(=O)N%18CN%19C(=O)N%20CN1C1C2N2CN%21C(=O)N(CN%22C(=O)N(CN%23C(=O)N(CN%24C(=O)N(CN%25C(=O)N(CN%26C(=O)N(CN%27C(=O)N(CN%28C(=O)N(CN%29C(=O)N(CN1C2=O)C%20C%19%29)C%18C%17%28)C%16C%15%27)C%14C%13%26)C%12C%11%25)C%10C9%24)C8C7%23)C6C5%22)C4C3%21 (stereo not shown) [CB[10], cucurbit[10]uril]
  solubility: insoluble
